In patent US20260284189A1, “TREATMENT OF NON-SMALL CELL LUNG CANCER” (ASTRAZENECA AB, priority 2023, published 2026):

Key:
[1] = test system: resectable non-small cell lung cancer (R-NSCLC); experiment: AEGEAN phase III: pathological response (pCR, MPR) by central pathology review; assay type: in vivo, human; details: final analysis
Excerpt: As used herein, the terms “pathological complete response” or “pathological CR” or “pCR” refer to the proportion of patients who have 0% residual viable tumor cells within all resected tissue (including primary lung lesion and lymph nodes) following neoadjuvant treatment as assessed by central pathology laboratory. […] Central pathology assessment of pCR will be performed according to the recommended methods and definitions described by IASLC 2020 (Travis et al. “IASLC Multidisciplinary Recommendations for Pathologic Assessment of Lung Cancer Resection Specimens After Neoadjuvant Therapy.” J Thorac Oncol. 2020 May; 15(5):709-740. doi:10.1016/j.jtho.2020.01.005). The analysis can be performed using a Cochran-Mantel-Haenszel (CMH) test, stratified by disease stage (Stage II versus Stage III) and PD-L1 expression status (<1% versus ≥1%). The effect of treatment will be estimated by the difference in proportions between treatment groups, together with their corresponding CI and p-value.
As used herein, the terms “major pathological response” and “mPR” refer to the proportion of patients with 10% or less residual viable tumor tissue in lung primary tumor after neoadjuvant treatment at the time of resection as assessed per central pathology laboratory. […]
Primary tumors and sampled lymph nodes were assessed for pathological response to neoadjuvant treatment by central pathology review using recommendations from the IASLC. […] 2020 May; 15(5):709-740. doi: 10.1016/j.jtho.2020.01.005; Hellmann et al. “Pathological response after neoadjuvant chemotherapy in resectable non-small-cell lung cancers: proposal for the use of major pathological response as a surrogate endpoint.” Lancet Oncol 2014; 15(1):e42-50; Cottrell et al. “Pathologic features of response to neoadjuvant anti-PD-1 in resected non-small-cell lung carcinoma: a proposal for quantitative immune-related pathologic response criteria (irPRC).” Ann Oncol 2018; 29(8):1853-1860). […]
For pathological endpoints, response rates were compared between treatment arms using a stratified Cochran-Mantel-Haenszel test; the treatment effect was estimated by the differences in response rates, with their corresponding 95% confidence intervals (CIs) calculated by the stratified Miettinen and Nurminen method. EFS was compared between the treatment arms using a stratified log-rank test; the treatment effect was estimated by HRs and 95% CIs calculated with stratified Cox-proportional-hazards models. […] For pCR, the differences in response rates were calculated for each subgroup, with corresponding 95% CIs estimated using an unstratified Miettinen and Nurminen method; for EFS, HRs and 95% CIs were calculated for each subgroup using a Cox-proportional-hazards model with treatment as the only covariate.

[2] = test system: PD-L1-mediated suppression of human T-cell activation; details: in vitro; cited from earlier work
[3] = test system: xenograft model; details: via a T-cell dependent mechanism; cited from earlier work

Durvalumab: antibody that selectively binds PD-L1 and blocks binding of PD-L1 to PD-1 and CD80; arm given with platinum-based chemotherapy before surgery
MPR, proportion of patients ([1]; mITT N=366, central review): 33.3% | pCR, proportion of patients ([1]; mITT N=366, central review): 17.2% | MPR difference in proportions, durvalumab arm versus placebo arm ([1]; mITT N=740): 21.0 | pCR difference in proportions, durvalumab arm versus placebo arm ([1]; mITT N=740): 13.0% | PD-L1-mediated suppression of human T-cell activation [2]: can relieve PD-L1-mediated suppression of human T-cell activation in vitro | tumor growth in a xenograft model [3]: inhibits tumor growth in a xenograft model
